Test results: patent publication US11235041B2, “Peptides and combination of peptides for use in immunotherapy against various cancers” (Immatics Biotechnologies GmbH, priority 2015, dated 2022)

What was measured:
[1] = tested on: CD8+ T cells of healthy HLA-A*02+ donors; assay: In vitro T-cell priming assay with artificial antigen presenting cells loaded with peptide/HLA-A*02 complexes and anti-CD28, multimer readout; format: cell-based, human; settings: HLA-A*02 peptides; peptide-specific multimer+ CD8+ T cells after in vitro priming; Table 19B
Source text: FIGS. 4A to 4D show exemplary results of peptide-specific in vitro CD8+ T cell responses of a healthy HLA-A*02+ donor. CD8+ T cells were primed using artificial APCs coated with anti-CD28 mAb and HLA-A*02 in complex with SeqID No 27 peptide (FIG. 4A, left panel), SeqID No 229 peptide (FIG. 4B, left panel), SeqID No 230 peptide (FIG. 4C, left panel) and SeqID No 235 peptide (FIG. 4D, left panel), respectively. After three cycles of stimulation, the detection of peptide-reactive cells was performed by 2D multimer staining with A*02/SeqID No 27 (FIG. 4A), A*02/SeqlD No 229 (FIG. 4B), A*02/SeqlD No 230 (FIG. 4C) or A*02/SeqlD No 235 (FIG. 4D). Right panels (FIGS. 4A, 4B, 4C and 4D) show control staining of cells stimulated with irrelevant A*02/peptide complexes. Viable singlet cells were gated for CD8+ lymphocytes. Boolean gates helped excluding false-positive events detected with multimers specific for different peptides. Frequencies of specific multimer+ cells among CD8+ lymphocytes are indicated.
In order to obtain information regarding the immunogenicity of the TUMAPs of the present invention, the inventors performed investigations using an in vitro T-cell priming assay based on repeated stimulations of CD8+ T cells with artificial antigen presenting cells (aAPCs) loaded with peptide/MHC complexes and anti-CD28 antibody.
In order to perform in vitro stimulations by artificial antigen presenting cells loaded with peptide-MHC complex (pMHC) and anti-CD28 antibody, the inventors first isolated CD8+ T cells from fresh HLA-A*02 leukapheresis products via positive selection using CD8 microbeads (Miltenyi Biotec, Bergisch-Gladbach, Germany) of healthy donors obtained from the University clinics Mannheim, Germany, after informed consent.
PBMCs and isolated CD8+ lymphocytes were incubated in T-cell medium (TCM) until use consisting of RPMI-Glutamax (Invitrogen, Karisruhe, Germany) supplemented with 10% heat inactivated human AB serum (PAN-Biotech, Aidenbach, Germany), 100 U/ml Penicillin/100 μg/ml Streptomycin (Cambrex, Cologne, Germany), 1 mM sodium pyruvate (CC Pro, Oberdorla, Germany), 20 μg/ml Gentamycin (Cambrex). 2.5 ng/ml IL-7 (PromoCell, Heidelberg, Germany) and 10 U/ml IL-2 (Novartis Pharma, Nürnberg, Germany) were also added to the TCM at this step.
Generation of pMHC/anti-CD28 coated beads, T-cell stimulations and readout was performed in a highly defined in vitro system using four different pMHC molecules per stimulation condition and 8 different pMHC molecules per readout condition.
The purified co-stimulatory mouse IgG2a anti human CD28 Ab 9.3 (Jung et al., 1987) was chemically biotinylated using Sulfo-N-hydroxysuccinimidobiotin as recommended by the manufacturer (Perbio, Bonn, Germany). Beads used were 5.6 μm diameter streptavidin coated polystyrene particles (Bangs Laboratories, Illinois, USA).
pMHC used for positive and negative control stimulations were A*0201/MLA-001 (peptide […] (SEQ ID NO. 303) from modified Melan-A/MART-1) and A*0201/DDX5-001 ([…] from DDX5, SEQ ID NO. 304), respectively.
800.000 beads/200 μl were coated in 96-well plates in the presence of 4×12.5 ng different biotin-pMHC, washed and 600 ng biotin anti-CD28 were added subsequently in a volume of 200 μl. Stimulations were initiated in 96-well plates by co-incubating 1×10^6 CD8+ T cells with […] washed coated beads in 200 μl TCM supplemented with 5 ng/ml IL-12 (PromoCell) for 3 days at 37° C. Half of the medium was then exchanged by fresh TCM supplemented with 80 U/ml IL-2 and incubating was continued for 4 days at 37° C. This stimulation cycle was performed for a total of three times. For the pMHC multimer readout using 8 different pMHC molecules per condition, a two-dimensional combinatorial coding approach was used as previously described (Andersen et al., 2012) with minor modifications encompassing coupling to 5 different fluorochromes. […]

[2] = target: HLA-A*02 (Homo sapiens, UniProt P04439, D140Y/D185E/D98H/E176V/E277Q/G131W/G231S/I119V/I121R/I166T/I218V/L300P/N151K/N90K/P208A/P217A/Q86G/Q94H/R138H/R169H); assay: MHC binding assay: UV-ligand exchange and beta2m ELISA, peptide exchange yield (Table 20); settings: binding to HLA-A*02; UV-ligand exchange, beta2m ELISA
Source text: Candidate peptides for T cell based therapies according to the present invention were further tested for their MHC binding capacity (affinity). The individual peptide-MHC complexes were produced by UV-ligand exchange, where a UV-sensitive peptide is cleaved upon UV-irradiation, and exchanged with the peptide of interest as analyzed. Only peptide candidates that can effectively bind and stabilize the peptide-receptive MHC molecules prevent dissociation of the MHC complexes. To determine the yield of the exchange reaction, an ELISA was performed based on the detection of the light chain (β2m) of stabilized MHC complexes. The assay was performed as generally described in Rodenko et al. (Rodenko et al., 2006).
96 well MAXISorp plates (NUNC) were coated over night with 2 ug/ml streptavidin in PBS at room temperature, washed 4× and blocked for1h at 37° C. in 2% BSA containing blocking buffer. Refolded HLA-A*02:01/MLA-001 monomers served as standards, covering the range of 15-500 ng/ml. Peptide-MHC monomers of the UV-exchange reaction were diluted 100 fold in blocking buffer. Samples were incubated for 1h at 37° C., washed four times, incubated with 2 ug/ml HRP conjugated anti-β2m for 1h at 37′C, washed again and detected with TMB solution that is stopped with […]. Absorption was measured at 450 nm. Candidate peptides that show a high exchange yield (preferably higher than 50%, most preferred higher than 75%) are generally preferred for a generation and production of antibodies or fragments thereof, and/or T cell receptors or fragments thereof, as they show sufficient avidity to the MHC molecules and prevent dissociation of the MHC complexes.
Table 20: MHC class I binding scores. Binding of HLA-class I restricted peptides to HLA-A*02 was ranged by peptide exchange yield: <20%=+; 20%-49%=++; 50%-75%=+++; >=75%=++++

In the case of “14 (ILAKDLFEI; listed as Homo sapiens) [compound 14]”, the “Wells positive [%] (in vitro immunogenicity)” value (“Wells positive [%]” below) [1] was “++ (20%-49%=++)” and the “Peptide exchange (MHC class I binding score, peptide exchange yield)” value (shortened to “Peptide exchange”) [2] was “++++ (>=75% = ++++)”.
For “1 (LLYPEPWSV; listed as Homo sapiens) [compound 1]”, the “Wells positive [%]” value [1] was “++ (20%-49%=++)” and the “Peptide exchange” value [2] was “++++ (>=75% = ++++)”.
For “229 (AILAHLNTV; listed as Homo sapiens) [compound 229]”, the “Wells positive [%]” value [1] was “++ (20%-49%=++)” and the “Peptide exchange” value [2] was “++++ (>=75% = ++++)”.
“12 (GLLPLLHRA; listed as Homo sapiens) [compound 12]” was tested, and the “Wells positive [%]” value [1] was “++++ (>=70%=++++)” and the “Peptide exchange” value [2] was “++++ (>=75% = ++++)”.
With “249 (GLCERLVSL; listed as Homo sapiens) [compound 249]” the “Wells positive [%]” value [1] was “+ (<20%=+)” and the “Peptide exchange” value [2] was “++++ (>=75% = ++++)”.
For “92 (GLLFSLRSV; listed as Homo sapiens) [compound 92]”, the “Wells positive [%]” value [1] was “++ (20%-49%=++)” and the “Peptide exchange” value [2] was “++++ (>=75% = ++++)”.
For “4 (KLMPGTYTL; listed as Homo sapiens) [compound 4]”, the “Wells positive [%]” value [1] was “+ (<20%=+)” and the “Peptide exchange” value [2] was “++++ (>=75% = ++++)”.
In the case of “248 (YLDRFLAGV; listed as Homo sapiens) [compound 248]”, the “Wells positive [%]” value [1] was “++ (20%-49%=++)” and the “Peptide exchange” value [2] was “++++ (>=75% = ++++)”.
